Source: patent US20250032430A1, “USES OF RHODOQUINONE FOR THE TREATMENT OF DISEASE” (Whitehead Institute for Biomedical Research, priority 2021, published 2025)

Columns and labels:
143B cells [1] = experiment: Ubiquinone and ubiquinol measurement by LC-MS in mitochondria; type: cell-based, human; conditions: antimycin-treated SDHB knockout cells versus antimycin-treated wild-type cells
Description: Ubiquinone and Ubiquinol measurements: Ubiquinone and Ubiquinol were isolated from mitochondria purified by differential centrifugation as described above. Extraction and mass spectrometry protocols were performed with slight modifications to a previously described protocol. Briefly, mitochondria isolated from 25 million cells or approximately 100 mg mouse tissue were resuspended in 500 μL of ethanol and vortexed for 10 minutes at 4° C. Then, 1 mL of hexane was added and the samples were vortexed for an additional 10 minutes at 4° C. Samples were centrifuged at 16,000×g for 10 minutes at 4° C., creating two layers—the top hexane layer and bottom ethanol layer. The top (hexane) fraction was moved into a new tube and dried down. Immediately prior to LC-MS, samples were resuspended in 50 μL of 80:20 ethanol:hexane and loaded into a 4° C. autosampler. 5 μL of samples were injected onto a Luna 3 μm PFP(2) 100 Å, LC Column 100×2 mm. The column oven was held at 25° C. and the autosampler tray was held at 4° C. Buffer A contained water with 0.1% formic acid and Buffer B contained acetonitrile with 0.1% formic acid. […]

143B cells [2] = experiment: Cell proliferation; type: cell-based, human; conditions: antimycin, media containing high pyruvate and aspartate; versus wild-type cells
Description: Proliferation: 25,000 cells were seeded in 6-well dishes and counted on day 1 and day 5 on a Beckman Coulter Counter. Doubling times were calculated using the following equation: […]

## antimycin
143B cells [1]
  levels of UQH2 and ratio of UQH2:UQ: greater
143B cells [2]
  proliferation of SDHB-null cells: less than wild-type cells treated with antimycin
